# Results as given in US10351539B2, “Macrocyclic complexes, their process of preparation and use as PET imaging agents” (INSTITUT NATIONAL DE LA SANTE ET DE LA RECHERCHE MEDICALE …, priority 2014, dated 2019).
# “Also recorded” adds a separate entry of the source.
# Assays:
# [1] = Study 2: biodistribution in healthy New Zealand rabbits (gamma counting of dissected organs); assay type: in vivo; conditions: for Uptake ratio Cartilage/Bone / Uptake ratio Cartilage/Muscle / Articular Cartilage / Bile / Blood / Bone / Bone Marrow / Kidney / Liver / Lung / Muscle / Spleen / Thyroid / Urine: i.v.
# Experimental: Biodistribution were determined in 36 healthy New Zealand rabbits (18 males and 18 females, 14 weeks old, 3.5 kg weight, Charles River, France), being randomly divided into two groups: • One group receiving ^99mTc-NTP 15-5: 18±3 MBq/animal for biodistribution; • One group receiving ^64Cu-2: 17±4 MBq/animal for biodistribution.
# The compounds were i.v. administered to anesthetized animals (ketamine/xylazine by intramuscular route) in the marginal ear vein.
# At selected time points after injection (15 min, 1 h, 3 h, 6 h, 20 h after injection), animals (3 animals/time point/compound) were sacrificed by a lethal i.v. dose of pentobarbital. Organs of interest were dissected, weighed and their radioactivity measured using a gamma counter (Model 1480 Wizard, Perkin Elmer Life Sciences, Boston, USA). After radioactive decay correction, results were expressed for each organ as % injected dose per gram (% ID/g) and averaged per group and per time point.
# [2] = Biodistribution in healthy and SRC bearing rats at 1 h after i.v. injection of radiolabelled compounds; assay type: in vivo; conditions: mean ± SD (n = 3); for Tumor: SRC (Swarm Rat Chondrosarcoma) bearing rats; for Articular Cartilage / Bladder / Blood / Kidney / Muscle / Liver: healthy and SRC bearing rats; for Liver: ND: at undetectable levels
# Experimental: Quantitative biodistribution of radiolabelled compounds was determined in rats: healthy animals as well as rats with primary grade II orthotopic chondrosarcoma at stage Day-30 after induction. The chondrosarcoma model was the Swarm Rat Chondrosarcoma model (SRC) implanted in paratibial location. Radiolabelled compounds (5-10 Mbq/animal) were i.v. administered in the caudal vein of animals being anesthetized of mixture of ketamine (58 mg/kg i.p.) (Imalgéne 500®) and xylazine (6 mg/kg i.p.) (Rompun® 2%, Bayer, France). One hour after injection, animals were then sacrificed by CO2 inhalation, dissected and organs of interest removed, weighed and their radioactivity counted using a gamma counter (Model 1480 Wizard, Perkin Elmer Life Sciences, Boston, USA). Organs collected were blood, muscle, knee, kidneys, liver, thoracic ribs, bladder for both healthy and chondrosarcoma bearing rats. For SRC animals, tumour was also sampled. After radioactive decay correction, results were expressed for each organ as % injected dose per gram (% ID/g) and averaged per group.
structure (smiles),measurement,setting,value
"CC[N+](CC)(CC)CCCN1CCNCCNCCNCCNCC1.[64Cu+2] [^64Cu-2, [^64Cu]—N,N,N-Triethyl-3-(1,4,7,10,13-pentaazacyclopentadecan-1-yl)propan-1-aminium copper(II)]",Accumulation in kidneys compared to ^99mTc-NTP 15-5,[1],significantly higher
same,Cartilage/muscle and cartilage/Bone ratios compared to ^99mTc-NTP 15-5,[1],higher
same,Duration of liver accumulation compared to ^99mTc-NTP 15-5,[1],shorter
same,Accumulation in cartilage (onset),[1]; as early as 15 min p.i.,rapidly accumulate
same,Uptake into the cartilages compared to ^99mTc-NTP 15-5,[1]; each time investigated,faster and higher uptake; also recorded: higher levels
same,Uptake ratio Cartilage/Bone,[1]; 15 min,120
same,Uptake ratio Cartilage/Muscle,[1]; 15 min,282
same,Articular Cartilage,[1]; 15 min after injection,8.46 ± 6.18 % ID/g
same,Bile,[1]; 15 min after injection,0.07 ± 0.04 % ID/g
same,Blood,[1]; 15 min after injection,0.31 ± 0.17 % ID/g
same,Bone,[1]; 15 min after injection,0.07 ± 0.02 % ID/g
same,Bone Marrow,[1]; 15 min after injection,0.08 ± 0.04 % ID/g
same,Kidney,[1]; 15 min after injection,0.65 ± 0.47 % ID/g
same,Liver,[1]; 15 min after injection,0.11 ± 0.03 % ID/g
same,Lung,[1]; 15 min after injection,0.23 ± 0.14 % ID/g
same,Muscle,[1]; 15 min after injection,0.03 ± 0.02 % ID/g
same,Spleen,[1]; 15 min after injection,0.11 ± 0.08 % ID/g
same,Thyroid,[1]; 15 min after injection,0.11 ± 0.08 % ID/g
same,Urine,[1]; 15 min after injection,1.51 ± 2.22 % ID/g
same,Uptake ratio Cartilage/Bone,[1]; 1 h,484
same,Uptake ratio Cartilage/Muscle,[1]; 1 h,484
same,Articular Cartilage,[1]; 1 h after injection,4.81 ± 1.16 % ID/g
same,Bile,[1]; 1 h after injection,0.03 ± 0.02 % ID/g
same,Blood,[1]; 1 h after injection,0.08 ± 0.02 % ID/g
same,Bone,[1]; 1 h after injection,0.01 ± 0.00 % ID/g
same,Bone Marrow,[1]; 1 h after injection,0.03 ± 0.01 % ID/g
same,Kidney,[1]; 1 h after injection,0.26 ± 0.07 % ID/g
same,Liver,[1]; 1 h after injection,0.04 ± 0.01 % ID/g
same,Lung,[1]; 1 h after injection,0.07 ± 0.02 % ID/g
same,Muscle,[1]; 1 h after injection,0.01 ± 0.00 % ID/g
same,Spleen,[1]; 1 h after injection,0.03 ± 0.01 % ID/g
same,Thyroid,[1]; 1 h after injection,0.03 ± 0.01 % ID/g
same,Urine,[1]; 1 h after injection,1.69 ± 2.14 % ID/g
same,Articular Cartilage,[1]; 3 h after injection,2.31 ± 0.32 % ID/g
same,Bile,[1]; 3 h after injection,0.11 ± 0.17 % ID/g
same,Blood,[1]; 3 h after injection,0.02 ± 0.00 % ID/g
same,Bone,[1]; 3 h after injection,0.01 ± 0.00 % ID/g
same,Bone Marrow,[1]; 3 h after injection,0.01 ± 0.00 % ID/g
same,Kidney,[1]; 3 h after injection,0.22 ± 0.01 % ID/g
same,Liver,[1]; 3 h after injection,0.02 ± 0.00 % ID/g
same,Lung,[1]; 3 h after injection,0.03 ± 0.00 % ID/g
same,Muscle,[1]; 3 h after injection,0.00 ± 0.00 % ID/g
same,Spleen,[1]; 3 h after injection,0.02 ± 0.00 % ID/g
same,Thyroid,[1]; 3 h after injection,0.04 ± 0.05 % ID/g
same,Urine,[1]; 3 h after injection,0.92 ± 0.63 % ID/g
same,Articular Cartilage,[1]; 6 h after injection,1.00 ± 1.02 % ID/g
same,Bile,[1]; 6 h after injection,0.02 ± 0.02 % ID/g
same,Blood,[1]; 6 h after injection,0.02 ± 0.02 % ID/g
same,Bone,[1]; 6 h after injection,0.00 ± 0.00 % ID/g
same,Bone Marrow,[1]; 6 h after injection,0.01 ± 0.01 % ID/g
same,Kidney,[1]; 6 h after injection,0.26 ± 0.14 % ID/g
same,Liver,[1]; 6 h after injection,0.02 ± 0.02 % ID/g
same,Lung,[1]; 6 h after injection,0.02 ± 0.02 % ID/g
same,Muscle,[1]; 6 h after injection,0.00 ± 0.00 % ID/g
same,Spleen,[1]; 6 h after injection,0.02 ± 0.02 % ID/g
same,Thyroid,[1]; 6 h after injection,0.00 ± 0.00 % ID/g
same,Urine,[1]; 6 h after injection,6.90 ± 7.93 % ID/g
same,Articular Cartilage,[1]; 20 h after injection,0.10 ± 0.02 % ID/g
same,Bile,[1]; 20 h after injection,0.01 ± 0.00 % ID/g
same,Blood,[1]; 20 h after injection,0.00 ± 0.00 % ID/g
same,Bone,[1]; 20 h after injection,0.00 ± 0.00 % ID/g
same,Bone Marrow,[1]; 20 h after injection,0.00 ± 0.00 % ID/g
same,Kidney,[1]; 20 h after injection,0.06 ± 0.01 % ID/g
same,Liver,[1]; 20 h after injection,0.00 ± 0.00 % ID/g
same,Lung,[1]; 20 h after injection,0.00 ± 0.00 % ID/g
same,Muscle,[1]; 20 h after injection,0.00 ± 0.00 % ID/g
same,Spleen,[1]; 20 h after injection,0.01 ± 0.00 % ID/g
same,Thyroid,[1]; 20 h after injection,0.00 ± 0.00 % ID/g
same,Urine,[1]; 20 h after injection,0.25 ± 0.22 % ID/g
same,Urinary elimination,[1]; indicated by accumulation in kidneys,high/rapid
same,In vivo stability (release of ^64Cu from transchelation or transmetalation negligible),[1]; inferred from liver uptake,stable
same,Tumor,[2],3.5 ± 0.5 % ID/g
same,Articular Cartilage,[2],2.6 ± 1.1 % ID/g
same,Bladder,[2],62.2 ± 17.6 % ID/g
same,Blood,[2],0.1 ± 0.05 % ID/g
same,Kidney,[2],16.4 ± 6.6 % ID/g
same,Muscle,[2],0.4 ± 0.3 % ID/g
"CC[N+](CC)(CC)CCCN1CCCN(Cc2ccccn2)CCNCCCN(Cc2ccccn2)CC1.[64Cu+2] [^64Cu-30, [^64Cu]-3-(4,11-Bis(pyridin-2-ylmethyl)-1,4,8,11-tetraazacyclotetradecan-1-yl)-N,N,N-triethylpropan-1-aminium copper(II)]",Tumor,[2],4.2 ± 0.6 % ID/g
same,Articular Cartilage,[2],2.7 ± 0.4 % ID/g
same,Bladder,[2],25.2 ± 10.6 % ID/g
same,Blood,[2],0.7 ± 0.2 % ID/g
same,Kidney,[2],9.2 ± 0.9 % ID/g
same,Muscle,[2],0.80 ± 0.4 % ID/g
"CC[N+](CC)(CC)CCCN1CCCNCCN(Cc2ccccn2)CCCNCC1.[64Cu+2] [^64Cu-27, [^64Cu]—N,N,N-Triethyl-3-(8-(pyridin-2-ylmethyl)-1,4,8,11-tetraazacyclotetradecan-1-yl)propan-1-aminium copper(II)]",Tumor,[2],1.4 ± 0.07 % ID/g
same,Articular Cartilage,[2],1.5 ± 0.4 % ID/g
same,Bladder,[2],30.5 ± 10.9 % ID/g
same,Blood,[2],0.4 ± 0.07 % ID/g
same,Kidney,[2],7.6 ± 4.6 % ID/g
same,Muscle,[2],0.43 ± 0.15 % ID/g
same,Liver,[2],1.2 ± 0.4 % ID/g
"CC[N+](CC)(CC)CCCN1CCCN2CCN(CCCN(CC(=O)OC(C)(C)C)CC1)CC2.[64Cu+2] [^64Cu-13, [^64Cu]-3-(8-(2-tert-Butoxy-2-oxoethyl)-1,5,8,12-tetraazabicyclo[10.2.2]hexadecan-5-yl)-N,N,N-triethylpropan-1-aminium copper(II)]",Articular Cartilage,[2],0.16 ± 0.06 % ID/g
same,Bladder,[2],11.83 % ID/g
same,Blood,[2],0.07 ± 0.01 % ID/g
same,Kidney,[2],1.06 ± 0.66 % ID/g
same,Muscle,[2],0.03 ± 0.01 % ID/g
same,Liver,[2],0.06 ± 0.01 % ID/g
"CC[N+](CC)(CC)CCCN1CCCN2CCN(CCCN(CC(=O)O)CC1)CC2.[64Cu+2] [^64Cu-14, [^64Cu]-3-(8-(Carboxymethyl)-1,5,8,12-tetraazabicyclo[10.2.2]hexadecan-5-yl)-N,N,N-triethylpropan-1-aminium copper(II)]",Articular Cartilage,[2],0.11 ± 0.02 % ID/g
same,Bladder,[2],14.71 % ID/g
same,Blood,[2],0.09 ± 0.04 % ID/g
same,Kidney,[2],0.73 ± 0.22 % ID/g
same,Muscle,[2],0.04 ± 0.00 % ID/g
same,Liver,[2],0.06 ± 0.02 % ID/g
